Target: Human GPR40 (Homo sapiens (Human), UniProt O14842)
Assay: Inositol Phosphate Turnover (IP1) Assay 1, HEK cells stably expressing human GPR40, 3H-inositol SPA
Assay type: cell-based
Details: HEK cells stably expressing human GPR40, 96-well
Experimental: Human and mouse GPR40 stable cell-lines were generated in CHO cells stably expressing NFAT BLA (Beta-lactamase). A human GPR40 stable cell-line was generated in HEK cells stably expressing the aequorin expressing reporter. The expression plasmids were transfected using lipofectamine (Life Technologies) following manufacturer's instructions. Stable cell-lines were generated following drug selection.
The assay was performed in 96-well format. HEK cells stably expressing human GPR40 were plated to be 60-80% confluent within 72 h. After 72 h, the plates were aspirated and the cells washed with inositol-free DMEM (ICN). The wash media was replaced with 150 μL of 3H-inositol labeling media (inositol-free media containing 0.4% human albumin or 0.4% mouse albumin, 1× pen/strep antibiotics, glutamine, 25 mM HEPES to which was added 3H-myo-inositol NEN #NET114A 1 mCi/mL, 25 Ci/mmol diluted 1:150 in loading media with a final specific radioactivity of 1 μCi/150 μL). Alternatively, the human and mouse albumin can be added after the overnight labeling step before the addition of LiCl.
The assay was typically run the next day after 18 h labeling. On the day of the assay, 5 μL of 300 mM LiCl was added to all wells and incubated at 37 degrees for 20 min. 0.75 μL of each compound was added and incubated with the cells for 60 min at 37 degrees. The media was then aspirated off and the assay terminated with the addition of 60 μL 10 mM formic acid. The cells were lysed for 60 min at room temperature. 15-30 μL of lysate was mixed with 70 μL/1 mg YSi SPA beads (Amersham) in clear bottom Isoplates. The plates were shaken for 2 h at room temperature. Beads were allowed to settle and the plates were counted in the Wallac Microbeta.

Chain of Human GPR40 (O14842 whole entry): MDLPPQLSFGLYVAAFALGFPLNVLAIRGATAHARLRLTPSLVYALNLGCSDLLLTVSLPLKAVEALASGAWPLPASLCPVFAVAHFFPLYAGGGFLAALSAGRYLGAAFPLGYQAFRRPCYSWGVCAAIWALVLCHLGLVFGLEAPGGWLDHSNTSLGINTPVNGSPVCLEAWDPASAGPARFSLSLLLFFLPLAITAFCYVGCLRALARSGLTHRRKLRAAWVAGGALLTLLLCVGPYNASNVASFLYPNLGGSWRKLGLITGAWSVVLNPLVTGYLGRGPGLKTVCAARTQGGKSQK

First: COc1cccc(OC2CC(COc3cccc([C@H](C4CC4)[C@H](C)C(=O)O)c3)C2)c1 (single isomer, unassigned) [Example 65]
Second: C[C@H](C(=O)O)[C@H](c1cccc(OCC2CC(Oc3cccc(O)c3)C2)c1)C1CC1 (single isomer, unassigned) [Example 122]
The EC50 of the first is 27-fold lower: 22 nM for the first, 597 nM for the second. The first is the more potent here.

Compared with `COc1cccc(OC2CC(COc3cccc([C@H](C4CC4)[C@H](C)C(=O)O)c3)C2)c1` (single isomer, unassigned) [Example 66], `C[C@H](C(=O)O)[C@H](c1cccc(OCC2CC(Oc3cccc(O)c3)C2)c1)C1CC1` (single isomer, unassigned) [Example 123] is 2.7-fold higher in EC50: 119 nM for the first, 324 nM for the second.

Compared with `COc1ccc(F)c(OC2CC(COc3cccc([C@H](C4CC4)[C@H](C)C(=O)O)c3)C2)c1` (single isomer, unassigned) [Example 80], `Cc1ccc(F)c(OC2CC(COc3cccc([C@H](C4CC4)[C@H](C)C(=O)O)c3)C2)c1` (single isomer, unassigned) [Example 118] is 13-fold higher in EC50: 12 nM for the first, 156 nM for the second. The first is the more potent here.

Going from `COc1cccc(C2CC2COc2cccc([C@H](C3CC3)[C@H](C)C(=O)O)c2)c1` (single isomer, unassigned) [Example 83] to `COc1cccc(C2CC(COc3cccc([C@H](C4CC4)[C@H](C)C(=O)O)c3)C2)c1` (stereo partly drawn) [Example 85], the EC50 falls from 94 nM to 35 nM (2.7-fold). The second is the more potent here.

Compared with `COc1cc(C2CC(COc3cccc([C@H](C4CC4)[C@H](C)C(=O)O)c3)C2)ccn1` (single isomer, unassigned) [Example 88], `COc1ccnc(OC2CC(COc3cccc([C@H](C4CC4)[C@H](C)C(=O)O)c3)C2)c1` (single isomer, unassigned) [Example 104] is 1.6-fold lower in EC50: 930 nM for the first, 564 nM for the second.

`COc1cc(C2CC(COc3cccc([C@H](C4CC4)[C@H](C)C(=O)O)c3)C2)ccn1` (single isomer, unassigned) [Example 89] and `COc1ccnc(OC2CC(COc3cccc([C@H](C4CC4)[C@H](C)C(=O)O)c3)C2)c1` (single isomer, unassigned) [Example 105] are within 1.5-fold of each other in EC50: 61 nM for the first, 56 nM for the second.

Compared with `C[C@H](C(=O)O)[C@H](c1cccc(OCC2CC(Oc3ccn[nH]3)C2)c1)C1CC1` (single isomer, unassigned) [Example 98], `C[C@H](C(=O)O)[C@H](c1cccc(OCC2CC(Oc3ccccc3)C2)c1)C1CC1` (stereo partly drawn) [Example 92, (2S,3R)-3-cyclopropyl-2-methyl-3-(3-((3-phenoxycyclobutyl)methoxy)phenyl)-propanoic acid] is 7.1-fold lower in EC50: 1480 nM for the first, 208 nM for the second. The second is the more potent here.

Going from `C[C@H](C(=O)O)[C@H](c1cccc(OCC2CC(Oc3ccn[nH]3)C2)c1)C1CC1` (single isomer, unassigned) [Example 99] to `C[C@H](C(=O)O)[C@H](c1cccc(OCC2CC(Oc3ccccc3Cl)C2)c1)C1CC1` (single isomer, unassigned) [Example 133], the EC50 falls from 2670 nM to 152 nM (18-fold).

Going from `C[C@H](C(=O)O)[C@H](c1cccc(OCC2CC(Oc3ccc4c(c3)COC4=O)C2)c1)C1CC1` (single isomer, unassigned) [Example 107] to `COc1cccc(OC2CC(COc3cccc([C@H](C4CC4)[C@H](C)C(=O)O)c3)C2)c1` (stereo partly drawn) [Example 64, (2S,3R)-3-Cyclopropyl-3-(3-((3-(3-methoxyphenoxy)cyclobutyl)methoxy)phenyl)-2-methylpropanoic acid], the EC50 falls from 3450 nM to 60 nM (58-fold).

Compared with `C[C@H](C(=O)O)[C@H](c1cccc(OCC2CC(Oc3ccc4c(c3)COC4=O)C2)c1)C1CC1` (single isomer, unassigned) [Example 108], `COc1ccc(F)c(OC2CC(COc3cccc([C@H](C4CC4)[C@H](C)C(=O)O)c3)C2)c1` (stereo partly drawn) [Example 73] is 46-fold lower in EC50: 1970 nM for the first, 43 nM for the second.

`COc1ccc(C)cc1OC1CC(COc2cccc([C@H](C3CC3)[C@H](C)C(=O)O)c2)C1` (single isomer, unassigned) [Example 116] and `Cc1ccc(F)c(OC2CC(COc3cccc([C@H](C4CC4)[C@H](C)C(=O)O)c3)C2)c1` (single isomer, unassigned) [Example 119] are within 1.5-fold of each other in EC50: 77 nM for the first, 98 nM for the second.

`COc1ccc(C)cc1OC1CC(COc2cccc([C@H](C3CC3)[C@H](C)C(=O)O)c2)C1` (single isomer, unassigned) [Example 117] and `COc1ccc(F)c(OC2CC(COc3cccc([C@H](C4CC4)[C@H](C)C(=O)O)c3)C2)c1` (stereo partly drawn) [Example 81, (2S,3R)-3-cyclopropyl-3-(3-((3-(2-fluoro-5-methoxyphenoxy)cyclobutyl)methoxy)phenyl)-2-methylpropanoic acid] are within 1.5-fold of each other in EC50: 50 nM for the first, 45 nM for the second.

First: C[C@H](C(=O)O)[C@H](c1cccc(OCC2CC(Oc3cccc(-c4ccccc4)c3)C2)c1)C1CC1 (single isomer, unassigned) [Example 120]
Second: C[C@H](C(=O)O)[C@H](c1cccc(OCC2CC(Oc3ccccc3Cl)C2)c1)C1CC1 (single isomer, unassigned) [Example 134]
The EC50 of the first is 11-fold higher: 975 nM for the first, 85 nM for the second.

First: C[C@H](C(=O)O)[C@H](c1cccc(OCC2CC(Oc3cccc(-c4ccccc4)c3)C2)c1)C1CC1 (single isomer, unassigned) [Example 121]
Second: C[C@H](C(=O)O)[C@H](c1cccc(OCC2CC(c3ccccc3)C2)c1)C1CC1 (stereo partly drawn) [Example 72]
The EC50 of the first is 2.8-fold higher: 561 nM for the first, 201 nM for the second. The second is the more potent here.

`CC(C)Oc1ccccc1OC1CC(COc2cccc([C@H](C3CC3)[C@H](C)C(=O)O)c2)C1` (single isomer, unassigned) [Example 126] and `COc1cccc(F)c1OC1CC(COc2cccc([C@H](C3CC3)[C@H](C)C(=O)O)c2)C1` (single isomer, unassigned) [Example 129] are within 1.5-fold of each other in EC50: 147 nM for the first, 109 nM for the second.

`CC(C)Oc1ccccc1OC1CC(COc2cccc([C@H](C3CC3)[C@H](C)C(=O)O)c2)C1` (single isomer, unassigned) [Example 127] and `COc1cccc(F)c1OC1CC(COc2cccc([C@H](C3CC3)[C@H](C)C(=O)O)c2)C1` (single isomer, unassigned) [Example 130] are within 1.5-fold of each other in EC50: 182 nM for the first, 139 nM for the second.

`CC(c1cc(C(F)(F)F)ccc1C(F)(F)F)N1CCC(COc2cccc([C@H](C3CC3)[C@H](C)C(=O)O)c2)CC1` (stereo partly drawn) [Example 35] and `C[C@H](C(=O)O)[C@H](c1cccc(OCC2CCN([C@H](C)c3cc(C(F)(F)F)ccc3C(F)(F)F)C2)c1)C1CC1` (stereo partly drawn) [Example 40] are within 1.5-fold of each other in EC50: 20 nM for the first, 25 nM for the second.

First: CCC(c1cc(C(F)(F)F)ccc1C(F)(F)F)N1CC(COc2cccc([C@H](C3CC3)[C@H](C)C(=O)O)c2)C1 (stereo partly drawn) [Example 36]
Second: C[C@H](C(=O)O)[C@H](c1cccc(OCC2CCN([C@@H](C)c3cc(C(F)(F)F)ccc3C(F)(F)F)C2)c1)C1CC1 (stereo partly drawn) [Example 41]
The EC50 of the first is 1.9-fold lower: 12 nM for the first, 23 nM for the second. The first is the more potent here.

`C[C@H](C(=O)O)[C@H](c1cccc(OCC2CCN(c3cccc(C(F)(F)F)n3)CC2)c1)C1CC1` [Example 37] and `C[C@H](C(=O)O)[C@H](c1cccc(OCC2CCN(c3cc(C(F)(F)F)ccn3)CC2)c1)C1CC1` [Example 39] are within 1.5-fold of each other in EC50: 177 nM for the first, 218 nM for the second.

Compared with `C[C@H](C(=O)O)[C@H](c1cccc(OCC2CCN(c3ncccc3C(F)(F)F)CC2)c1)C1CC1` [Example 38], `COc1cccc([C@H]2CC[C@@H](COc3cccc([C@H](C4CC4)[C@H](C)C(=O)O)c3)C2)c1` [Example 79, (2S,3R)-3-cyclopropyl-3-(3-(((1R,3 S)-3-(3-methoxyphenyl)cyclopentyl)methoxy)phenyl)-2-methylpropanoic acid] is 9.1-fold higher in EC50: 13 nM for the first, 118 nM for the second. The first is the more potent here.

`C[C@H](C(=O)O)[C@H](c1cccc(OCC2CC2Cc2ccccc2)c1)C1CC1` (stereo partly drawn) [Example 67] and `C[C@H](C(=O)O)[C@H](c1cccc(OCC2CC2c2ccccc2)c1)C1CC1` (stereo partly drawn) [Example 68] are within 1.5-fold of each other in EC50: 408 nM for the first, 304 nM for the second.

`COc1cccc(C2CC2COc2cccc([C@H](C3CC3)[C@H](C)C(=O)O)c2)c1` (stereo partly drawn) [Example 69] and `COc1cccc(C[C@H]2C[C@@H]2COc2cccc([C@H](C3CC3)[C@H](C)C(=O)O)c2)c1` [Example 70] are within 1.5-fold of each other in EC50: 166 nM for the first, 146 nM for the second.

`COc1cccc(C[C@@H]2C[C@H]2COc2cccc([C@H](C3CC3)[C@H](C)C(=O)O)c2)c1` [Example 71] and `COc1cccc(C2CC2COc2cccc([C@H](C3CC3)[C@H](C)C(=O)O)c2)c1` (stereo partly drawn) [Example 82, (2S,3R)-3-cyclopropyl-3-(3-((2-(3-methoxyphenyl)cyclopropyl)methoxy)phenyl)-2-methylpropanoic acid] are within 1.5-fold of each other in EC50: 187 nM for the first, 172 nM for the second.

Compared with `COc1ccc(F)c([C@H]2C[C@@H]2COc2cccc([C@H](C3CC3)[C@H](C)C(=O)O)c2)c1` [Example 74], `COc1ccc(F)c([C@@H]2C[C@H]2COc2cccc([C@H](C3CC3)[C@H](C)C(=O)O)c2)c1` [Example 75] is 1.6-fold lower in EC50: 56 nM for the first, 34 nM for the second.

`COc1cc([C@@H]2C[C@H]2COc2cccc([C@H](C3CC3)[C@H](C)C(=O)O)c2)c(F)cn1` [Example 76] and `COc1cc(C2CC(COc3cccc([C@H](C4CC4)[C@H](C)C(=O)O)c3)C2)ccn1` (stereo partly drawn) [Example 86] are within 1.5-fold of each other in EC50: 138 nM for the first, 102 nM for the second.

For `COc1cccc(C2=CCC(COc3cccc([C@H](C4CC4)[C@H](C)C(=O)O)c3)C2)c1` (stereo partly drawn) [Example 78, (2 S,3R)-3-cyclopropyl-3-(3-((3-(3-methoxyphenyl)cyclopent-3-en-1 yl)methoxy)phenyl)-2-methylpropanoic acid], the EC50 was 75 nM.

Source: patent US10059667B2, “Antidiabetic compounds” (MERCK SHARP & DOHME CORP., priority 2014, dated 2018)
